Source: publication PMC4861903, “Synthesis of a highly water-soluble acacetin prodrug for treating experimental atrial fibrillation in beagle dogs” (Scientific Reports, 2016)
Converted amounts (≈) assume the structure as drawn. Where two headings read alike, the source gives them in different places.

How the values were obtained:
[1] = target: T1, hKv4.3 current (Ito, KCND3) (Homo sapiens, UniProt Q9UK17); assay: Whole-cell patch clamp of hKv4.3 current in HEK 293 cells; format: cell-based; conditions: 10 μM, at +50 mV, current peak, n = 5
T1 construct: expressed in transfected cells
T1 sequence (Q9UK17 1-655): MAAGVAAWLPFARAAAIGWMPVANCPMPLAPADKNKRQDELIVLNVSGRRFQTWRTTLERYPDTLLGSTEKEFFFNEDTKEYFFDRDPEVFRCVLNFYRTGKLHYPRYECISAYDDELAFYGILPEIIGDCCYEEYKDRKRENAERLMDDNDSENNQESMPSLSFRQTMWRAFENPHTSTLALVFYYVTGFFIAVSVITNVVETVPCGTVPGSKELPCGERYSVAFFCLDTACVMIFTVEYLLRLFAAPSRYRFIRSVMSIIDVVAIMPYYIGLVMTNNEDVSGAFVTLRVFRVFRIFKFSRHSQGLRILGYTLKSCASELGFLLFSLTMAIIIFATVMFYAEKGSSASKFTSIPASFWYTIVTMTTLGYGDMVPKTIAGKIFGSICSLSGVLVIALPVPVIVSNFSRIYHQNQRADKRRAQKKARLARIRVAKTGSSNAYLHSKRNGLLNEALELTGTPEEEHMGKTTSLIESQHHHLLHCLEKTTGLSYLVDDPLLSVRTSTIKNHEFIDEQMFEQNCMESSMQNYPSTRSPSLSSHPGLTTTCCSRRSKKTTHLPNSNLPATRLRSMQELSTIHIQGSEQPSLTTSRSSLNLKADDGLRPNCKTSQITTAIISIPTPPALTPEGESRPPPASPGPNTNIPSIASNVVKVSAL
Protocol: (§1) Whole-cell currents of hKv1.5 and hKv4.3 were recorded in established HEK 293 cell lines stably expressing hKv1.5 (KCN5A) and hKv4.3 (KCND3) and IKACh was determined in isolated rat atrial myocytes as described previously[12][31][32] and in Supplemental Materials. […]
(§2) Effects of acacetin prodrug on cardiac potassium currents
(§3) Whole-cell currents of hKv1.5 and hKv4.3 were recorded in established HEK 293 cell lines stably expressing hKv1.5 (KCN5A) and hKv4.3 (KCND3).1, 2 The cells were cultured in Dulbecco’s modified eagle’s medium (DMEM, Invitrogen, Hong Kong) supplemented with 10% fetal bovine serum and 400 µg/mL G418. Cells on a coverslip were transferred to an open cell chamber (0.5 ml) mounted on the stage of an inverted microscope and superfused with Tyrode’s solution at 2 mL/min. The whole cell patch-clamp technique was used as described previously.1, 2 The whole-cell membrane currents were measured using an EPC-10 amplifier and Pulse software (Heka Elektronik, Lambrecht, Germany). Borosilicate glass electrodes (1.2-mm OD) were pulled with a Brown/Flaming puller (model P-97, Sutter Instrument, Nato, CA) and had resistances of 1.5~2.5 MΩ when filled with the pipette solution. A 3-M KCl agar bridge was used as the reference electrode. The tip potential was zeroed before the patch pipette contacted the cell. […]

[2] = target: T2, IKACh (acetylcholine-activated K+ current) (Rattus norvegicus, UniProt P48548+P63251); assay: Whole-cell IKACh elicited by 5 μM carbachol in rat atrial myocytes; format: cell-based; conditions: 10 μM, at −100 mV, carbachol sensitive current, n = 5
T2 construct: endogenous in cells; host or cells: atrial myocytes dissociated from male Sprague-Dawley rats
T2 sequence (P63251 1-501): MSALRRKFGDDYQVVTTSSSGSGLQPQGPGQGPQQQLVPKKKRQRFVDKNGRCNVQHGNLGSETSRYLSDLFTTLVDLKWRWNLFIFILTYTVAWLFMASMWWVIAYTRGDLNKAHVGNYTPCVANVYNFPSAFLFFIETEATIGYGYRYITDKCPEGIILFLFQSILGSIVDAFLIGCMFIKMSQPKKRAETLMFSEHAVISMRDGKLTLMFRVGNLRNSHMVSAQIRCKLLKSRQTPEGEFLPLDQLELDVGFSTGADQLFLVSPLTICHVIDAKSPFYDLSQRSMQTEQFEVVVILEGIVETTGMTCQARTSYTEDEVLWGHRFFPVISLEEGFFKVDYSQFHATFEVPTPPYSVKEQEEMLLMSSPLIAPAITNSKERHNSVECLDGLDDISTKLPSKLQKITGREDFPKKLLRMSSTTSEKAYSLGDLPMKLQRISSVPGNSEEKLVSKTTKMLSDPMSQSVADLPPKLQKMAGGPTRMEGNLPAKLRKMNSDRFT
T2 sequence (P48548 1-419): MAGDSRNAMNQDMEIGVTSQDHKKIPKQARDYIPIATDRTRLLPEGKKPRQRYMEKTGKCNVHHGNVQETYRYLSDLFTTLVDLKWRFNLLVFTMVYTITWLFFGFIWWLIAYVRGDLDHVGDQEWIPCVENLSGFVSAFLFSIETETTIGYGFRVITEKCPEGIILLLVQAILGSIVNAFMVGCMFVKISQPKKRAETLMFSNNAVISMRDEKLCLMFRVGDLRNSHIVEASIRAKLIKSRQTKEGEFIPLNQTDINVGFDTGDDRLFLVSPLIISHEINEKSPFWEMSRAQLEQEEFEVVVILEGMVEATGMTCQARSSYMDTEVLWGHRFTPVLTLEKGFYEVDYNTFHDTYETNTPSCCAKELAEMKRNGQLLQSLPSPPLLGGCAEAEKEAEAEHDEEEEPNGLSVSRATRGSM
Protocol: as §1
Effects of acacetin prodrug on cardiac potassium currents […]
Cells on a coverslip were transferred to an open cell chamber (0.5 ml) mounted on the stage of an inverted microscope and superfused with Tyrode’s solution at 2 mL/min. The whole cell patch-clamp technique was used as described previously.1, 2 The whole-cell membrane currents were measured using an EPC-10 amplifier and Pulse software (Heka Elektronik, Lambrecht, Germany). Borosilicate glass electrodes (1.2-mm OD) were pulled with a Brown/Flaming puller (model P-97, Sutter Instrument, Nato, CA) and had resistances of 1.5~2.5 MΩ when filled with the pipette solution. A 3-M KCl agar bridge was used as the reference electrode. The tip potential was zeroed before the patch pipette contacted the cell. After a giga-Ohm seal was obtained, the cell membrane was ruptured by applying gentle pressure to establish a whole-cell configuration. […] The liquid junction potential (14.7 mV) calculated with the software Clampex was not corrected in the experiment and data […]
Whole-cell current of IKACh was determined in isolated rat atrial myocytes. […]

[3] = Aqueous solubility by HPLC in H2O, 5% glucose and 0.9% NaCl; format: physicochemical
hERG channels = target: T3, hERG channels (Homo sapiens, UniProt Q12809); conditions: 30 μM; cited from earlier work
T3 construct: expressed in transfected cells; host or cells: HEK 293
T3 sequence (Q12809 whole entry): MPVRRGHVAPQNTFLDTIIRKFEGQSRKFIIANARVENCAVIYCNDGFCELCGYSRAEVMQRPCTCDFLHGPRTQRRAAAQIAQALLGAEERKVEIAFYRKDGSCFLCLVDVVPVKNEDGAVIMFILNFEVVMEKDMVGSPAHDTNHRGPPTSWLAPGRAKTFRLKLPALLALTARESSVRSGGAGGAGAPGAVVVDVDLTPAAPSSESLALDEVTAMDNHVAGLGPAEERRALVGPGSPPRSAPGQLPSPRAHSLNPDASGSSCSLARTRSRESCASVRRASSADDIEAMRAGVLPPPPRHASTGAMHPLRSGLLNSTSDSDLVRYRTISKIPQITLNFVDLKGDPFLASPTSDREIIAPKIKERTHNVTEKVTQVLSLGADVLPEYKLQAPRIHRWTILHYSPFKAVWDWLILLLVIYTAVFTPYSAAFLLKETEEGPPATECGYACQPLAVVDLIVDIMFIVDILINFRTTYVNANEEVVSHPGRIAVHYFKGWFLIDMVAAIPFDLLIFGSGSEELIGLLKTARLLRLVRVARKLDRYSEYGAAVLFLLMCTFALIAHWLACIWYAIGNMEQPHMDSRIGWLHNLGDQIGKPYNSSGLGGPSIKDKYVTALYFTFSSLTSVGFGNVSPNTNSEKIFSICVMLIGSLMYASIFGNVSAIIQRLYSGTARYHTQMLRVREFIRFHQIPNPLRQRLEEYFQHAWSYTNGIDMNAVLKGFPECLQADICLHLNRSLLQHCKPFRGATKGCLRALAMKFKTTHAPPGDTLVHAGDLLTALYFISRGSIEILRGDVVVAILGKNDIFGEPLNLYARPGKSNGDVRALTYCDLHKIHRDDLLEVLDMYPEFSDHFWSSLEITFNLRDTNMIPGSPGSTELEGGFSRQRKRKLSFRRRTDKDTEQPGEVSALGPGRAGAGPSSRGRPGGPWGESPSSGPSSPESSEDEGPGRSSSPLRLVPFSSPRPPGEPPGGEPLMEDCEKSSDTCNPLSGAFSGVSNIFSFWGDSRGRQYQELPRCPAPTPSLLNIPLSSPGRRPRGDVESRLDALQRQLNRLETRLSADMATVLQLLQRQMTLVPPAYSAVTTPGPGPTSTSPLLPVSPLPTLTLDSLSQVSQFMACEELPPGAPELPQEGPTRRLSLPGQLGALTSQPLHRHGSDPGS

[4] = target: T4, hKv1.5 current (IKur, KCN5A) (Homo sapiens, UniProt P22460); assay: Whole-cell patch clamp of hKv1.5 current in HEK 293 cells; format: cell-based; conditions: 10 μM, at +50 mV, current at end of the voltage step, n = 5
T4 construct: expressed in transfected cells
T4 sequence (P22460 whole entry): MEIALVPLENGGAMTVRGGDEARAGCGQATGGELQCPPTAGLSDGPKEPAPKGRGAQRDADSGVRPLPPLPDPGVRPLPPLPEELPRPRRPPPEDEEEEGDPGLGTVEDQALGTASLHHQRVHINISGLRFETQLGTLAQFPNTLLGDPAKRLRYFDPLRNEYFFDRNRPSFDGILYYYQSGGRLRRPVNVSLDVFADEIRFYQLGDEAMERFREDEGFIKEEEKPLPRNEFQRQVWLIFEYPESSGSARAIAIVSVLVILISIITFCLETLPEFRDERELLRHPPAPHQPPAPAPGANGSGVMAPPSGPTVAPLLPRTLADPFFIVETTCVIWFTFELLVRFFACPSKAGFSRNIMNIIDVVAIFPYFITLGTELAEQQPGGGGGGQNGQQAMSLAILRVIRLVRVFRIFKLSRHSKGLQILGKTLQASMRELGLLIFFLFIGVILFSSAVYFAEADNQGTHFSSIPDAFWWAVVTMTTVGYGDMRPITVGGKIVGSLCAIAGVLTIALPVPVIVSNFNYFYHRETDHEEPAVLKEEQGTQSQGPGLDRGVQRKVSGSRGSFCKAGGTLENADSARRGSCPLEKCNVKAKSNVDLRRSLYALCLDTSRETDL
Protocol: as §1, §2, §3

SMILES | decrease of hKv4.3 current [1] [%] | decrease of IK.ACh [2] [%] | solubility [3] [µg/mL] | solubility ([3]; 24 °C, saline or isotonic) [µg/mL] | solubility ([3]; 24 °C, water) [µg/mL] | inhibition of hERG current (hERG channels) | decrease of hKv1.5 current [4] [%] | solubility ([3]; 24 °C, saline or isotonic, in 0.9% NaCl, room temperature (23–25 °C), n = 3, read-out: maximum solubility) [µg/mL] | solubility ([3]; 24 °C, saline or isotonic, in 5% glucose, room temperature (23–25 °C), n = 3, read-out: maximum solubility) [µg/mL] | solubility ([3]; 24 °C, water, in H2O, room temperature (23–25 °C), n = 3, read-out: maximum solubility) [µg/mL] | increase of aqueous solubility vs acacetin ([3]; in 0.9% NaCl) [folds] | increase of aqueous solubility vs acacetin ([3]; in 5% glucose) [folds] | increase of aqueous solubility vs acacetin ([3]; in H2O) [folds]
COc1ccc(-c2cc(=O)c3c(O)cc(O)cc3o2)cc1 [acacetin] | 69.3 ± 5.1 | 66.5 ± 3.1 | 0.195 ± 0.0135 (≈ 0.686 µM) | 0.312 ± 0.0121 (≈ 1.1 µM) | 0.0644 ± 0.0109 (≈ 0.227 µM) | ~ 50% | 79.7 ± 4.1 | – | – | – | – | – | –
COc1ccc(-c2cc(=O)c3c(O)cc(OP(=O)(O)O)cc3o2)cc1 [phosphate ester of acacetin] | – | – | – | – | – | – | – | 4.3 ± 0.1 | 2.7 ± 0.1 | 2.5 ± 0.1 | 21 | 7.6 | 37.8
